Source: PubChem BioAssay AID248 (DTP/NCI, 2004)
Toxic doses and inconclusive results are not listed.

System: L1210 leukemia ip in BDF1 mice, survival T/C
Experiment: NCI In Vivo Anticancer Drug Screen. Data for tumor model L1210 Leukemia (intraperitoneal) in B6D2F1 (BDF1) mice
Conditions: endpoint: mean survival time, higher = longer survival
Outline: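 Value reflects the ratio of survival in compound-treated mice to survival in vehicle-treated controls, with both groups carrying the same transplanted tumor.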

[1] = dose: 100.0 mg/kg/injection, schedule: Q01DX009 (ip), vehicle: saline with Tween-80
[2] = dose: 200.0 mg/kg/injection, schedule: Q01DX009 (ip), vehicle: saline with Tween-80
[3] = dose: 400.0 mg/kg/injection, schedule: Q01DX009 (ip), vehicle: saline with Tween-80
[4] = dose: 100.0 mg/kg/injection, schedule: Q04DX003 (ip), vehicle: saline
[5] = dose: 200.0 mg/kg/injection, schedule: Q04DX003 (ip), vehicle: saline
[6] = dose: 100.0 mg/kg/injection, schedule: Q04DX003 (ip), vehicle: saline with Tween-80
[7] = dose: 200.0 mg/kg/injection, schedule: Q04DX003 (ip), vehicle: saline with Tween-80
[8] = dose: 400.0 mg/kg/injection, schedule: Q04DX003 (ip), vehicle: saline with Tween-80
[9] = dose: 100.0 mg/kg/injection, schedule: Q01DX001 (ip), vehicle: saline
[10] = dose: 200.0 mg/kg/injection, schedule: Q01DX001 (ip), vehicle: saline

## COC1=C(N2CC2)C(=O)C(OC)=C(N2CC2)C1=O
dose: 0.5 mg/kg/injection, schedule: Q01DX009 (ip), vehicle: carboxymethylcellulose (CMC)
  T/C: 114 % of control
dose: 1.0 mg/kg/injection, schedule: Q01DX009 (ip), vehicle: carboxymethylcellulose (CMC)
  T/C: 124 % of control
dose: 3.0 mg/kg/injection, schedule: Q01DX009 (ip), vehicle: carboxymethylcellulose (CMC)
  T/C: 121 % of control

## Cc1cc(Cl)cc(C)c1OC(=O)Nc1ccc(F)cc1
dose: 100.0 mg/kg/injection, schedule: Q01DX009 (ip), vehicle: Klucel (hydroxypropylcellulose) (HPC)
  T/C: 96 % of control
dose: 200.0 mg/kg/injection, schedule: Q01DX009 (ip), vehicle: Klucel (hydroxypropylcellulose) (HPC)
  T/C: 95 % of control
dose: 400.0 mg/kg/injection, schedule: Q01DX009 (ip), vehicle: Klucel (hydroxypropylcellulose) (HPC)
  T/C: 107 % of control

## CC[NH-].[Cl][Pt+2][Cl].[NH2-]
dose: 0.37 mg/kg/injection, schedule: Q01DX009 (ip), vehicle: other
  T/C: 111 % of control
dose: 0.75 mg/kg/injection, schedule: Q01DX001 (ip), vehicle: other
  T/C: 107 % of control
dose: 0.75 mg/kg/injection, schedule: Q01DX009 (ip), vehicle: other
  T/C: 114 % of control
dose: 1.5 mg/kg/injection, schedule: Q01DX001 (ip), vehicle: other
  T/C: 111 % of control
dose: 3.0 mg/kg/injection, schedule: Q01DX001 (ip), vehicle: other
  T/C: 114 % of control
dose: 3.0 mg/kg/injection, schedule: Q01DX009 (ip), vehicle: other
  T/C: 157 % of control

## CCCCCCCCCCCSSCCCCCCCCCCC
dose: 100.0 mg/kg/injection, schedule: Q04DX003 (ip), vehicle: other
  T/C: 96 % of control
dose: 200.0 mg/kg/injection, schedule: Q04DX003 (ip), vehicle: other
  T/C: 96 % of control
dose: 400.0 mg/kg/injection, schedule: Q04DX003 (ip), vehicle: other
  T/C: 97 % of control

## Clc1c(Cl)c(Cl)c(C(c2c(Cl)c(Cl)c(Cl)c(Cl)c2Cl)c2c(Cl)c(Cl)c(Cl)c(Cl)c2Cl)c(Cl)c1Cl
[1]
  T/C: 97 % of control
[2]
  T/C: 93 % of control
[3]
  T/C: 89 % of control

## Cc1cc(Oc2ccc(Cl)cc2NC(=O)Nc2ccc(Cl)c(Cl)c2)c(S(=O)(=O)O)cc1Cl
dose: 12.5 mg/kg/injection, schedule: Q04DX003 (ip), vehicle: saline
  T/C: 103 % of control
dose: 25.0 mg/kg/injection, schedule: Q01DX009 (ip), vehicle: saline
  T/C: 103 % of control
dose: 25.0 mg/kg/injection, schedule: Q04DX003 (ip), vehicle: saline
  T/C: 105 % of control
dose: 50.0 mg/kg/injection, schedule: Q01DX009 (ip), vehicle: saline
  T/C: 95 % of control
dose: 50.0 mg/kg/injection, schedule: Q04DX003 (ip), vehicle: saline
  T/C: 103 % of control
dose: 100.0 mg/kg/injection, schedule: Q01DX009 (ip), vehicle: saline
  T/C: 101 % of control
[4]
  T/C: 97 % of control

## CCN(CC)CCNc1ccccc1[N+](=O)[O-]
dose: 75.0 mg/kg/injection, schedule: Q01DX001 (ip), vehicle: acid diluted with saline
  T/C: 100 % of control
dose: 75.0 mg/kg/injection, schedule: Q04DX003 (ip), vehicle: acid diluted with saline
  T/C: 103 % of control
dose: 150.0 mg/kg/injection, schedule: Q01DX001 (ip), vehicle: acid diluted with saline
  T/C: 102 % of control
dose: 150.0 mg/kg/injection, schedule: Q04DX003 (ip), vehicle: acid diluted with saline
  T/C: 95 % of control
dose: 300.0 mg/kg/injection, schedule: Q01DX001 (ip), vehicle: acid diluted with saline
  T/C: 110 % of control

## COC(=O)/C=C\C(=O)O
[4]
  T/C: 88 % of control
[5]
  T/C: 88 % of control

## COc1ccc(CC(N)C(=O)N2CC(n3cnc4c(N(C)C)ncnc43)CC2CO)cc1 (stereo not given)
dose: 25.0 mg/kg/injection, schedule: Q04DX002 (ip), vehicle: saline
  T/C: 98 % of control
dose: 50.0 mg/kg/injection, schedule: Q04DX002 (ip), vehicle: saline
  T/C: 119 % of control
dose: 100.0 mg/kg/injection, schedule: Q04DX002 (ip), vehicle: saline
  T/C: 105 % of control

## Cc1cc(C)c(-c2c(C)cc(C)c([N+](=O)[O-])c2C)c(C)c1N
dose: 75.0 mg/kg/injection, schedule: Q01DX009 (ip), vehicle: Klucel (hydroxypropylcellulose) (HPC)
  T/C: 100 % of control
dose: 75.0 mg/kg/injection, schedule: Q04DX003 (ip), vehicle: Klucel (hydroxypropylcellulose) (HPC)
  T/C: 98 % of control
dose: 150.0 mg/kg/injection, schedule: Q01DX009 (ip), vehicle: Klucel (hydroxypropylcellulose) (HPC)
  T/C: 105 % of control
dose: 150.0 mg/kg/injection, schedule: Q04DX003 (ip), vehicle: Klucel (hydroxypropylcellulose) (HPC)
  T/C: 101 % of control
dose: 300.0 mg/kg/injection, schedule: Q01DX009 (ip), vehicle: Klucel (hydroxypropylcellulose) (HPC)
  T/C: 100 % of control
dose: 300.0 mg/kg/injection, schedule: Q04DX003 (ip), vehicle: Klucel (hydroxypropylcellulose) (HPC)
  T/C: 93 % of control

## CCCCC(=O)OCC1OC(n2cnc3c(=S)nc[nH]c32)C(OC(=O)CCCC)C1OC(=O)CCCC (stereo not given)
dose: 50.0 mg/kg/injection, schedule: Q01DX015 (ip), vehicle: carboxymethylcellulose (CMC)
  T/C: 151 % of control
dose: 50.0 mg/kg/injection, schedule: Q01DX Z (ip), vehicle: carboxymethylcellulose (CMC)
  T/C: 117 % of control
dose: 100.0 mg/kg/injection, schedule: Q01DX015 (ip), vehicle: carboxymethylcellulose (CMC)
  T/C: 172 % of control
dose: 200.0 mg/kg/injection, schedule: Q01DX Z (ip), vehicle: carboxymethylcellulose (CMC)
  T/C: 161 % of control
dose: 400.0 mg/kg/injection, schedule: Q01DX Z (ip), vehicle: carboxymethylcellulose (CMC)
  T/C: 87 % of control

## NC(=S)N/N=C/c1ccc(Cl)cn1
dose: 7.33 mg/kg/injection, schedule: Q04DX003 (ip), vehicle: saline with Tween-80
  T/C: 97 % of control
dose: 11.0 mg/kg/injection, schedule: Q01DX001 (ip), vehicle: saline with Tween-80
  T/C: 95 % of control
dose: 11.0 mg/kg/injection, schedule: Q04DX003 (ip), vehicle: saline with Tween-80
  T/C: 104 % of control
dose: 16.5 mg/kg/injection, schedule: Q01DX001 (ip), vehicle: saline with Tween-80
  T/C: 105 % of control
dose: 16.5 mg/kg/injection, schedule: Q04DX003 (ip), vehicle: saline with Tween-80
  T/C: 116 % of control
dose: 25.0 mg/kg/injection, schedule: Q01DX001 (ip), vehicle: saline with Tween-80
  T/C: 111 % of control
dose: 25.0 mg/kg/injection, schedule: Q04DX003 (ip), vehicle: saline with Tween-80
  T/C: 121 % of control

## CCCCCCCC/C=C\CCCCCCCC(=O)OCCSCCOC(C)=O
[1]
  T/C: 97 % of control
[6]
  T/C: 89 % of control
[2]
  T/C: 102 % of control
[7]
  T/C: 92 % of control
[3]
  T/C: 102 % of control
[8]
  T/C: 94 % of control

## CC(=O)c1c(C)cc(C)nc1C
[9]
  T/C: 96 % of control
[10]
  T/C: 102 % of control

## C(=C1/CC2CCC1C2)/c1ccccc1 (stereo not given)
[9]
  T/C: 98 % of control
[4]
  T/C: 93 % of control
[10]
  T/C: 103 % of control
[5]
  T/C: 93 % of control
dose: 400.0 mg/kg/injection, schedule: Q01DX001 (ip), vehicle: saline
  T/C: 101 % of control
dose: 400.0 mg/kg/injection, schedule: Q04DX003 (ip), vehicle: saline
  T/C: 89 % of control

## N#Cc1nc2c(nc1C#N)-c1ccccc1C2=O
dose: 6.25 mg/kg/injection, schedule: Q01DX009 (ip), vehicle: Klucel (hydroxypropylcellulose) (HPC)
  T/C: 99 % of control
dose: 12.5 mg/kg/injection, schedule: Q01DX009 (ip), vehicle: Klucel (hydroxypropylcellulose) (HPC)
  T/C: 94 % of control
dose: 12.5 mg/kg/injection, schedule: Q04DX003 (ip), vehicle: Klucel (hydroxypropylcellulose) (HPC)
  T/C: 104 % of control
dose: 25.0 mg/kg/injection, schedule: Q04DX003 (ip), vehicle: Klucel (hydroxypropylcellulose) (HPC)
  T/C: 112 % of control

## O=C(Cl)OC12CC3CC(CC(C3)C1)C2
dose: 100.0 mg/kg/injection, schedule: Q01DX001 (ip), vehicle: Klucel (hydroxypropylcellulose) (HPC)
  T/C: 95 % of control
dose: 100.0 mg/kg/injection, schedule: Q01DX009 (ip), vehicle: other
  T/C: 105 % of control
dose: 200.0 mg/kg/injection, schedule: Q01DX001 (ip), vehicle: Klucel (hydroxypropylcellulose) (HPC)
  T/C: 97 % of control
dose: 200.0 mg/kg/injection, schedule: Q01DX009 (ip), vehicle: other
  T/C: 105 % of control
dose: 400.0 mg/kg/injection, schedule: Q01DX001 (ip), vehicle: Klucel (hydroxypropylcellulose) (HPC)
  T/C: 100 % of control
dose: 400.0 mg/kg/injection, schedule: Q01DX009 (ip), vehicle: other
  T/C: 105 % of control

## COc1cccc(OC)c1C(c1c(OC)cccc1OC)c1c(OC)cccc1OC
[6]
  T/C: 95 % of control
[7]
  T/C: 91 % of control
[8]
  T/C: 101 % of control
